# Test results reported in BindingDB's records for doi:10.7270/Q2PR7TCX (The Scripps Research Institute Molecular Screening Center, 2007).
# Where a name gives a salt, the structure may show the parent alone.
# Biological target: Steroidogenic factor 1 (Homo sapiens, UniProt Q13285)
# Assay: inhibition of SF-1 LBD-driven luciferase – cell-based, CHO-K1, Gal4-SF-1 LBD, luciferase luminescence, counter-screen for RORA inhibitor project, dose response (AID 611)
# Settings: not given
# Chain of Steroidogenic factor 1 (Q13285 whole entry, the tested form may be a part): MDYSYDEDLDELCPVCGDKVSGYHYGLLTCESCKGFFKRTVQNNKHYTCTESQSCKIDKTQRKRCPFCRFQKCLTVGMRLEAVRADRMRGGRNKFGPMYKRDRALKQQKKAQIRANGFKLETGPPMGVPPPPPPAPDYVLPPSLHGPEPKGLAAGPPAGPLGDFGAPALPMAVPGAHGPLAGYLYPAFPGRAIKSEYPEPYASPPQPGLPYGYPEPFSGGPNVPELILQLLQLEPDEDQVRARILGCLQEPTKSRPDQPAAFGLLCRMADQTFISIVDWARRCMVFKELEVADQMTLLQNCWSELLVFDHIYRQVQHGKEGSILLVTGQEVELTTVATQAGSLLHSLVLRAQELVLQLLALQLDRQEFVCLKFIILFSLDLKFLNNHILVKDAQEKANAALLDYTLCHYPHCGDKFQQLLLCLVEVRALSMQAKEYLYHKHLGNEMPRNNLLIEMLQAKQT
row,IC50 [µM],SMILES
1,9.35,COc1ccccc1-c1cc(C(F)(F)F)nc(S(=O)(=O)CCCC(=O)NC(C)C)n1 [4-[4-(2-methoxyphenyl)-6-(trifluoromethyl)pyrimidin-2-yl]sulfonyl-N-propan-2-yl-butanamide]
2,4.85,"COc1cccc(N2CCN(c3ncnc4c3[nH]c3ccccc34)CC2C)c1 (stereo not drawn) [4-[4-(3-methoxyphenyl)-3-methyl-1-piperazinyl]-5H-pyrimido[5,4-b]indole]"
3,1.44,"Clc1ccc(OCCN2CCN(c3ncnc4sccc34)CC2)cc1 [4-[4-[2-(4-chloranylphenoxy)ethyl]piperazin-1-yl]thieno[2,3-d]pyrimidine]"
4,2.64,"CCOc1ccc(-c2cc(CCCC(=O)NCCCOC)no2)cc1 [4-[5-(4-ethoxyphenyl)-1,2-oxazol-3-yl]-N-(3-methoxypropyl)butanamide]"
5,> 11,"CCOc1ccc(-c2cc(CCCC(=O)NCc3ccco3)no2)cc1 [4-[5-(4-ethoxyphenyl)-1,2-oxazol-3-yl]-N-(furan-2-ylmethyl)butanamide]"
6,6.81,CCOC(=O)N1CCC(NC(=O)C2CCCN(Cc3nc(-c4cccc(Cl)c4)oc3C)C2)CC1 (stereo not drawn) [4-[[1-[[2-(3-chlorophenyl)-5-methyl-oxazol-4-yl]methyl]nipecotoyl]amino]piperidine-1-carboxylic acid ethyl ester]
7,0.675,COc1cc(CN=O)ccc1OCc1ccc(C(=O)O)cc1 [4-[[4-(hydroximinomethyl)-2-methoxy-phenoxy]methyl]benzoic acid]
8,6.07,CCN(CC)c1ccc2cc(NC(=O)CCC(=O)O)c(=O)oc2c1 [4-[[7-(diethylamino)-2-keto-chromen-3-yl]amino]-4-keto-butyric acid]
9,5.04,"CC(=O)c1c(C)[nH]c(C(=O)OCCCCN2C(=O)c3ccccc3C2=O)c1C [4-acetyl-3,5-dimethyl-1H-pyrrole-2-carboxylic acid 4-(1,3-dioxo-2-isoindolyl)butyl ester]"
10,> 11,"Cc1ccccc1NC(=O)c1cnc2ccccn2c1=O [4-keto-N-(o-tolyl)pyrido[1,2-a]pyrimidine-3-carboxamide]"
11,> 99.1,Cc1ccc(-c2cnc(NC(=O)CCC(=O)N3CCCCC3)n2C)cc1 [4-keto-N-[1-methyl-5-(p-tolyl)imidazol-2-yl]-4-piperidino-butyramide]
12,4.51,COc1ccc(C(=O)Nn2c(SCC(=O)NCC3CCCO3)nc3ccccc3c2=O)cc1 (stereo not drawn) [4-methoxy-N-[4-oxidanylidene-2-[2-oxidanylidene-2-(oxolan-2-ylmethylamino)ethyl]sulfanyl-quinazolin-3-yl]benzamide]
13,3.29,COc1ccc(C(=O)NC(=O)Nc2cc(C)ccn2)cc1 [4-methoxy-N-[(4-methyl-2-pyridyl)carbamoyl]benzamide]
14,4.35,CCOc1ccc(OCc2cccc(C(=O)N3CCOCC3)c2)cc1 [4-{3-[(4-ethoxyphenoxy)methyl]benzoyl}morpholine]
15,4.81,"O=c1cc(-c2c(F)c(F)c(F)c(F)c2F)oc2c(F)c(F)c(F)c(F)c12 [5,6,7,8-tetrafluoro-2-(2,3,4,5,6-pentafluorophenyl)-1-benzopyran-4-one]"
16,9.53,"O=C(NC1CC1)c1ccc(-c2nc3ccccc3s2)s1 [5-(1,3-benzothiazol-2-yl)-N-cyclopropyl-2-thiophenecarboxamide]"
17,3.06,"Cc1oc(-c2ccc3c(c2)OCCO3)cc1C(=O)O [5-(2,3-dihydro-1,4-benzodioxin-6-yl)-2-methyl-3-furancarboxylic acid]"
18,2.82,"COc1ccc(-c2nc(-c3ccccc3)no2)c(OC)c1 [5-(2,4-dimethoxyphenyl)-3-phenyl-1,2,4-oxadiazole]"
19,3.34,"Cc1ccc(-c2nc(-c3ccccc3)no2)c(Cl)c1 [5-(2-chloranyl-4-methyl-phenyl)-3-phenyl-1,2,4-oxadiazole]"
20,2.22,"Cc1ccc(-c2nc(-c3ccccn3)no2)cc1Cl [5-(3-chloranyl-4-methyl-phenyl)-3-pyridin-2-yl-1,2,4-oxadiazole]"
21,> 11,CCOc1ccc(OCc2ccc(C(=O)OCc3ccccn3)o2)cc1 [5-(4-Ethoxy-phenoxymethyl)-furan-2-carboxylic acid pyridin-2-ylmethyl ester]
22,7.09,COc1ccccc1-n1nnnc1S(=O)(=O)Cc1ccc(Cl)cc1 [5-(4-chlorobenzyl)sulfonyl-1-(2-methoxyphenyl)tetrazole]
23,> 3.67,"Fc1ccc(-c2nnc(NC3=NCCCCC3)o2)cc1 [5-(4-fluorophenyl)-N-(3,4,5,6-tetrahydro-2H-azepin-7-yl)-1,3,4-oxadiazol-2-amine]"
24,1.05,"Cc1ccc(-c2nc(-c3ccccn3)no2)cc1 [5-(4-methylphenyl)-3-(2-pyridinyl)-1,2,4-oxadiazole]"

row,IC50 [µM],SMILES
1,> 3.67,"Cc1ccc(-c2nnc(Nc3ccccc3)o2)cc1 [5-(4-methylphenyl)-N-phenyl-1,3,4-oxadiazol-2-amine]"
2,5.97,Oc1c(CN2CCOCC2)cc(COCc2ccccc2)c2cccnc12 [5-(benzoxymethyl)-7-(morpholinomethyl)quinolin-8-ol]
3,7.58,Oc1c(CN2CCCCC2)cc(COCc2ccccc2)c2cccnc12 [5-(benzoxymethyl)-7-(piperidinomethyl)quinolin-8-ol]
4,> 99,"NCCCCCc1nnc(SCc2ccccc2Cl)o1 [5-[5-[(2-chlorobenzyl)thio]-1,3,4-oxadiazol-2-yl]pentylamine;hydrochloride]"
5,3.74,O=S(=O)(NCc1ccncc1)c1ccc(Br)s1 [5-bromanyl-N-(pyridin-4-ylmethyl)thiophene-2-sulfonamide]
6,6.65,Oc1c(CN2CCN(c3ccccn3)CC2)cc(Cl)c2cccnc12 [5-chloranyl-7-[(4-pyridin-2-ylpiperazin-1-yl)methyl]quinolin-8-ol]
7,4,"O=C(Nc1nc(-c2ccccn2)cs1)c1ccc(Cl)s1 [5-chloranyl-N-(4-pyridin-2-yl-1,3-thiazol-2-yl)thiophene-2-carboxamide]"
8,5.33,Cc1ccc(S(=O)(=O)Nc2cccc3ncccc23)s1 [5-methyl-N-quinolin-5-ylthiophene-2-sulfonamide]
9,8.96,"O=S(=O)(c1ccccc1)N1CCN(c2cc(-c3ccccc3)nc3ncnn23)CC1 [5-phenyl-7-[4-(phenylsulfonyl)piperazin-1-yl]-[1,2,4]triazolo[1,5-a]pyrimidine]"
10,3.18,Cn1nc(C(C)(C)C)cc1C(=O)NCc1ccc(N2CCCC2=O)cc1 [5-tert-Butyl-2-methyl-2H-pyrazole-3-carboxylic acid 4-(2-oxo-pyrrolidin-1-yl)-benzylamide]
11,4.43,"O=S1(=O)Nc2c(ccc3cccnc23)-c2ccccc21 [5H-quinolino[8,7-c][1,2]benzothiazine 6,6-dioxide]"
12,6.66,"COC(=O)C1C(=CN2CCCc3ccccc32)NC(=O)NC1c1ccc(F)cc1 (stereo not drawn) [6-(3,4-dihydro-2H-quinolin-1-ylmethyl)-4-(4-fluorophenyl)-2-keto-3,4-dihydro-1H-pyrimidine-5-carboxylic acid methyl ester]"
13,8.07,C[S+]([O-])c1nc(-c2ccc(Br)cc2)cc(-c2ccccc2)c1C#N (stereo not drawn) [6-(4-bromophenyl)-2-(methylsulfinyl)-4-phenylnicotinonitrile]
14,0.39,"CCOc1ccc(C2=Nn3c(nnc3-c3ccccc3OC)SC2)cc1 [6-(4-ethoxyphenyl)-3-(2-methoxyphenyl)-7H-[1,2,4]triazolo[3,4-b][1,3,4]thiadiazine]"
15,1.73,"CCc1ccc(-c2cn3nc(C)c(C)nc3n2)cc1 [6-(4-ethylphenyl)-2,3-dimethyl-imidazo[1,2-b][1,2,4]triazine]"
16,> 99,O=C(O)CCCCCn1c(O)csc1=S [6-(4-keto-2-thioxo-thiazolidin-3-yl)hexanoic acid]
17,5.29,"CC(C)Cn1c(N)c(C(=O)CSc2ccc3c(c2)OCCO3)c(=O)n(C)c1=O [6-amino-5-[2-(2,3-dihydro-1,4-benzodioxin-6-ylsulfanyl)acetyl]-3-methyl-1-(2-methylpropyl)pyrimidine-2,4-dione]"
18,4.15,Cc1ccc(Nc2cc(C)nn2-c2nc(C)cc(O)n2)cc1 [6-methyl-2-[3-methyl-5-(4-methylanilino)pyrazol-1-yl]-1H-pyrimidin-4-one]
19,1.93,"Cc1ccc2nc(-c3ccccc3)cn2c1 [6-methyl-2-phenyl-imidazo[1,2-a]pyridine;hydrobromide]"
20,6.06,"Cn1c(-c2ccccc2)cc2c3no[n+]([O-])c3ccc21 [6-methyl-3-oxidanidyl-7-phenyl-pyrrolo[2,3-g][2,1,3]benzoxadiazol-3-ium]"
21,7.59,"COc1cccc(-c2nnc3n2N=C(C(C)(C)C)CS3)c1 [6-tert-butyl-3-(3-methoxyphenyl)-7H-[1,2,4]triazolo[3,4-b][1,3,4]thiadiazine]"
22,> 33,"C=CCOc1nc2c(c(=O)n(C)c(=O)n2C)n1Cc1ccc(Cl)cc1Cl [7-[(2,4-dichlorophenyl)methyl]-1,3-dimethyl-8-prop-2-enoxy-purine-2,6-dione]"
23,> 11,"C=CCOc1nc2c(c(=O)n(C)c(=O)n2C)n1Cc1ccc(Cl)cc1 [7-[(4-chlorophenyl)methyl]-1,3-dimethyl-8-prop-2-enoxy-purine-2,6-dione]"

row,SMILES,IC50 [µM]
1,"CCCCOc1ncnc2c1[nH]c1ccc(F)cc12 [4-butoxy-8-fluoranyl-5H-pyrimido[5,4-b]indole]",4.2
2,"C[C@@]1(CO)[C@H](O)CC[C@@]2(C)[C@H]1CC[C@H]1C[C@@H]3C[C@@]12CC[C@]3(O)CO [6,13-di(hydroxymethyl)-2,6-dimethyl-(1S,2S,5R,6R,7R,10S,12R,13R)-tetracyclo[10.3.1.01,10.02,7]hexadecane-5,13-diol (Aphidicolin)]",0.519

# Same assay, conditions: inactive by the depositor's call
row,IC50 [µM],SMILES
1,13.2,"COc1ccccc1-c1cc(C(F)(F)F)nc(S(=O)(=O)CCCC(=O)Nc2cc(C)on2)n1 [4-[4-(2-methoxyphenyl)-6-(trifluoromethyl)pyrimidin-2-yl]sulfonyl-N-(5-methyl-1,2-oxazol-3-yl)butanamide]"
2,11.6,Cc1ccc2nc(C(F)(F)F)c(C#N)c(N)c2c1 [4-amino-6-methyl-2-(trifluoromethyl)-3-quinolinecarbonitrile]
3,12.4,Cc1ccc(S(=O)(=O)Nc2ccc3ncccc3c2)cc1 [4-methyl-N-(6-quinolinyl)benzenesulfonamide]
4,10.7,"COc1cccc(Cn2c(NCc3ccco3)nc3c2c(=O)n(C)c(=O)n3C)c1 [8-(2-furanylmethylamino)-7-[(3-methoxyphenyl)methyl]-1,3-dimethylpurine-2,6-dione]"
